Data on 1 molecule can be found in ChEMBL document CHEMBL2057120, “Chromatin structure determines accessibility of a hairpin polyamide-chlorambucil conjugate at histone H4 genes in pancreatic cancer cells” (Bioorg Med Chem Lett, 2012).

For data set [1], the system named is MIA PaCa-2. The data set can be described thus: Growth inhibition of human MIAPaCa2 cells after 6 days by MTS assay. The format is functional. The settings on record: MIA PaCa-2, 144 h.
A short description of data set [2]: Growth inhibition of human HEK293 cells after 6 days by MTS assay. The format is cell-based.
For data set [3], the system named is HEK293. Description: Selectivity ratio of GI50 for human HEK293 cells to GI50 for human MIAPaCa2 cells.
Data set [4] can be described thus: Drug uptake in human HEK293 cell nucleus using BODIPY labeled compound at 500 uM after 16 hrs by […] microscopic analysis. The format is ADME, cell-based. As to conditions: hek293, 16 h.
Data set [5] relates to MIA PaCa-2. Description: Downregulation of histone H4A mRNA expression in human MIAPaCa2 cells at 50 uM after 72 hrs by quantitative RT-PCR analysis. The format is functional, cell-based.
Data set [6] deals with MIA PaCa-2. The data set can be described thus: Downregulation of histone H4D mRNA expression in human MIAPaCa2 cells at 50 uM after 72 hrs by quantitative RT-PCR analysis. The format is functional, cell-based.
Data set [7] relates to MIA PaCa-2. Description: Downregulation of histone HJK mRNA expression in human MIAPaCa2 cells at 50 uM after 72 hrs by quantitative RT-PCR analysis. The format is functional, cell-based.
Data set [8] relates to MIA PaCa-2. Description: Downregulation of histone H4C mRNA expression in human MIAPaCa2 cells at 50 uM after 72 hrs by quantitative RT-PCR analysis. The format is functional, cell-based.
The subject of data set [9] is MIA PaCa-2. The data set can be described thus: Downregulation of histone H4H mRNA expression in human MIAPaCa2 cells at 50 uM after 72 hrs by quantitative RT-PCR analysis. The format is functional, cell-based.
The test system of data set [10] is MIA PaCa-2. The data set can be described thus: Downregulation of histone H4B mRNA expression in human MIAPaCa2 cells at 50 uM after 72 hrs by quantitative RT-PCR analysis. The format is functional, cell-based.
Data set [11] relates to MIA PaCa-2. The data set can be described thus: Downregulation of histone H4E mRNA expression in human MIAPaCa2 cells at 50 uM after 72 hrs by quantitative RT-PCR analysis. The format is functional, cell-based.
The subject of data set [12] is MIA PaCa-2. The data set can be described thus: Downregulation of histone H4L mRNA expression in human MIAPaCa2 cells at 50 uM after 72 hrs by quantitative RT-PCR analysis. The format is functional, cell-based.
The test system of data set [13] is MIA PaCa-2. The data set can be described thus: Downregulation of histone H4AB mRNA expression in human MIAPaCa2 cells at 50 uM after 72 hrs by quantitative RT-PCR analysis. The format is functional, cell-based.
In data set [14] the test system is MIA PaCa-2. Description: Downregulation of histone 4H4 mRNA expression in human MIAPaCa2 cells at 50 uM after 72 hrs by quantitative RT-PCR analysis. The format is functional, cell-based.
The subject of data set [15] is HEK293. Description: Downregulation of histone H4A mRNA expression in human HEK293 cells at 250 uM after 72 hrs by quantitative RT-PCR analysis. The format is ADME, cell-based. The settings on record: hek293, 72 h.
For data set [16], the system named is HEK293. The data set can be described thus: Downregulation of histone H4D mRNA expression in human HEK293 cells at 250 uM after 72 hrs by quantitative RT-PCR analysis. The format is ADME, cell-based. As to conditions: hek293, 72 h.
For data set [17], the system named is HEK293. The data set can be described thus: Downregulation of histone HJK mRNA expression in human HEK293 cells at 250 uM after 72 hrs by quantitative RT-PCR analysis. As to conditions: hek293, 72 h. The format is ADME, cell-based.
For data set [18], the system named is HEK293. Description: Downregulation of histone H4C mRNA expression in human HEK293 cells at 250 uM after 72 hrs by quantitative RT-PCR analysis. The settings on record: hek293, 72 h. The format is ADME, cell-based.
Data set [19] has as its system HEK293. Description: Downregulation of histone H4H mRNA expression in human HEK293 cells at 250 uM after 72 hrs by quantitative RT-PCR analysis. The settings on record: hek293, 72 h. The format is ADME, cell-based.
Data set [20] deals with HEK293. Description: Downregulation of histone H4B mRNA expression in human HEK293 cells at 250 uM after 72 hrs by quantitative RT-PCR analysis. As to conditions: hek293, 72 h. The format is ADME, cell-based.
The test system of data set [21] is HEK293. Description: Downregulation of histone H4E mRNA expression in human HEK293 cells at 250 uM after 72 hrs by quantitative RT-PCR analysis. The format is ADME, cell-based. The settings on record: hek293, 72 h.
The test system of data set [22] is HEK293. Description: Downregulation of histone H4L mRNA expression in human HEK293 cells at 250 uM after 72 hrs by quantitative RT-PCR analysis. The settings on record: hek293, 72 h. The format is ADME, cell-based.
Data set [23] concerns HEK293. The data set can be described thus: Downregulation of histone H4AB mRNA expression in human HEK293 cells at 250 uM after 72 hrs by quantitative RT-PCR analysis. The format is ADME, cell-based. As to conditions: hek293, 72 h.
For data set [24], the system named is HEK293. Description: Downregulation of histone 4H4 mRNA expression in human HEK293 cells at 250 uM after 72 hrs by quantitative RT-PCR analysis. As to conditions: hek293, 72 h. The format is ADME, cell-based.

Active and inactive are the calls of the source. The rule behind the calls is not given here.

`CN(C)CCCNC(=O)CCNC(=O)c1cc(NC(=O)c2cc(NC(=O)c3cc(NC(=O)c4cc(NC(=O)[C@@H](CCNC(=O)CCCc5ccc(N(CCCl)CCCl)cc5)NC(=O)c5nc(NC(=O)CCNC(=O)c6nc(NC(=O)c7nccn7C)cn6C)cn5C)cn4C)cn3C)cn2C)cn1C` returned a GI50 in the data set with MIA PaCa-2 [1] of 16 nM. Moreover, the GI50 at 144 h in data set [2] amounted to 400 nM. The RatioGI50 with HEK293 [3] was 25. Also, the Drug uptake result in [4] was “Active”. Also, the outcome in the data set on MIA PaCa-2 [5], in the data set with MIA PaCa-2 [6], in the data set on MIA PaCa-2 [7], in the data set with MIA PaCa-2 [8], in the data set with MIA PaCa-2 [9] and in the data set on MIA PaCa-2 [10] was Active. The outcome in the data set on MIA PaCa-2 [11], in the data set on MIA PaCa-2 [12], in the data set with MIA PaCa-2 [13] and in the data set with MIA PaCa-2 [14] was Active. In addition, the Activity entry with HEK293 [15], in the data set on HEK293 [16], in the data set on HEK293 [17], in the data set on HEK293 [18], in the data set with HEK293 [19] and with HEK293 [20] was “Non-toxic” throughout. The Activity result in the data set on HEK293 [21], with HEK293 [22], with HEK293 [23] and with HEK293 [24] was “Non-toxic” throughout.
